Measured values published in patent US8063101B2, “Carotenoid analogs and derivatives for the prevention of platelet aggregation” (Cardax Pharmaceuticals, Inc., priority 2007, dated 2011).

Experiment: Tongue bleeding time
Assay type: in vivo, beagle dogs
Settings: DDA 10, 30 or 50 mg/kg followed by rt-PA
Protocol: Tongue bleeding time (BT) was determined with the use of a SurgiCut™ (International Technidyne Corp, Edison, N.J.) device that makes a uniform incision 5 mm long and 1 mm deep on the upper surface of the tongue. The tongue lesion was blotted with filter paper every 20 sec until the transfer of blood to the filter paper was no longer apparent. The interval, from the time of the tongue incision until the time that blood was no longer transferred to the filter paper, was recorded as the tongue bleeding time.

## CC1=C(/C=C/C(C)=C/C=C/C(C)=C/C=C/C=C(C)/C=C/C=C(C)/C=C/C2=C(C)C(=O)C(OC(=O)CCC(=O)O)CC2(C)C)C(C)(C)CC(OC(=O)CCC(=O)O)C1=O (stereo not shown) [DDA, Disodium disuccinate astaxanthin]
  tongue template bleeding time, baseline vs after drug treatment: similar
